Measurements as given in patent US20230416262A1, “TRPML MODULATORS” (Casma Therapeutics, Inc., priority 2020, published 2023).

system: TFEB; experiment: TFEB nuclear translocation assay; assay type: cell-based; settings: Homo sapiens; HeLa wt or HeLa TRPML1 KO cells, treated for 2 hrs; ratio of nuclear to ring-region TFEB intensity
Experimental: For the TFEB nuclear translocation assay, HeLa wt or HeLa TRPML1 KO cells were plated at 2700 cells/well into black-walled, 384-well Cell carrier Ultra tissue culture treated plates in complete media and incubated overnight. The next day, cells are treated for 2 hrs with compounds and incubated at 37° C. Cells were then fixed for 30 minutes at room temperature in 4% final PFA and washed five times with 90 μL PBS. PBS is aspirated from the wells and the cells are blocked with 7.5 μL blocking buffer (1.1 PBS/Odyssey block buffer containing 0.1% triton x-100 and 1% goat serum). After 30-60 minutes of block, 7.5 μL of primary anti-TFEB (rabbit) antibody is added for a final dilution of 1:200 antibody in 15 μL blocking buffer. Plates are incubated overnight at 4° C. The following day, plates are washed again into PBS, 90 μL with 5 washes, all PBS is aspirated from the wells and the cells are incubated for 1 hr in 1:1000 goat-anti rabbit Alexa 488 secondary antibody, also containing 10 μg/mL Hoechst 33342. After the 1 hr RT incubation, plates are washed a final time into PBS, sealed with foil and imaged with an automated epifluorescence microscopy (PerkinElmer Operetta CLS). Four different fields were imaged per well using ×20 magnification for DAPI and FITC filter sets. Images were quantified using PerkinElmer Harmony software, briefly: apply flatfield correction (basic/advanced) for input images. Use the Find Nuclei building block with channel set at Hoechst to find the nuclei. Use the Find cytoplasm building block with channel set to Alexa 488 to find the cytoplasm. Use select cell region with Channel set at Alexa 488 and region of interest as Nuclei and define outer border at 0 μm and inner at 45 μm to cover complete nuclei. Use select cell region with Channel set at Alexa 488 and region of interest as ring region and define outer border at −5 μm and inner at 0 μm to define a ring around the nucleus. Use the find calculate intensity parameter to calculate intensity of the nuclear region and the ring region. Define results as Number of nuclei and ratio of A/B where A is Intensity of Nuclei and B is intensity of the ring region.

EC50 [µM]	SMILES
2.01 to 8	CS(=O)(=O)c1ccc(S(=O)(=O)N2CC3(CCCC3)c3ccccc32)cc1 [Compound I-9, 1′-(4-methanesulfonylbenzenesulfonyl)-1′,2′-dihydrospiro[cyclopentane-1,3′-indole]]
8.01 to 9.99	O=S(=O)(Cc1ccccc1)N1CC2(CCCC2)c2ccccc21 [Compound I-1, 1′-phenylmethanesulfonyl-1′,2′-dihydrospiro[cyclopentane-1,3′-indole]]
2.01 to 8	CC1(C)OCc2cc(S(=O)(=O)N3CC4(CCCC4)c4ccccc43)ccc21 [Compound I-66, 1′-((1,1-dimethyl-1,3-dihydroisobenzofuran-5-yl)sulfonyl)spiro[cyclopentane-1,3′-indoline]]
2.01 to 8	CC(C)C(=O)c1ccc(S(=O)(=O)N2CC3(CCCC3)c3ccccc32)cc1 [Compound I-3, 1-[4-({1′,2′-dihydrospiro[cyclopentane-1,3′-indol]-1′-yl}sulfonyl)phenyl]-2-methylpropan-1-one]
8.01 to 9.99	Cc1cccc(-n2cc(S(=O)(=O)N3CC4(CCCC4)c4ccccc43)cn2)c1 [Compound I-75, 1′-{[1-(3-methylphenyl)-1H-pyrazol-4-yl]sulfonyl}-1′,2′-dihydrospiro[cyclopentane-1,3′-indole]]
2.01 to 8	O=S(=O)(Cc1cccc(F)c1)N1CC2(CCCC2)c2ccccc21 [Compound I-25, 1′-[(3-fluorophenyl)methanesulfonyl]-1′,2′-dihydrospiro[cyclopentane-1,3′-indole]]
≥ 10	CN(c1ccc(S(=O)(=O)N2CC3(CCCC3)c3ccccc32)cc1)S(C)(=O)=O [Compound I-52, N-[4-({1′,2′-dihydrospiro[cyclopentane-1,3′-indol]-1′-yl}sulfonyl)phenyl]-N-methylmethanesulfonamide]
2.01 to 8	O=S(=O)(c1ccc2c(c1)OC1(CCC1)O2)N1CC2(CCCC2)c2ccccc21 [Compound I-64, 1′-({spiro[1,3-benzodioxole-2,1′-cyclobutan]-6-yl}sulfonyl)-1′,2′-dihydrospiro[cyclopentane-1,3′-indole]]
≥ 10	O=S(=O)(c1ccc2c(c1)CCOC2)N1CC2(CCCC2)c2ccccc21 [Compound I-59, 1′-(3,4-dihydro-1H-2-benzopyran-6-sulfonyl)-1′,2′-dihydrospiro[cyclopentane-1,3′-indole]]
2.01 to 8	O=S(=O)(c1cnn(C2CCCCC2)c1)N1CC2(CCCC2)c2ccccc21 [Compound I-18, 1′-[(1-cyclohexyl-1H-pyrazol-4-y1)sulfonyl]-1′,2′-dihydrospiro[cyclopentane-1,3′indole]]
≥ 10	N=S(=O)(c1ccc(S(=O)(=O)N2CC3(CCCCC3)c3ccccc32)cc1)C1CC1 (stereo not drawn) [Compound I-151, 1′-((4-(cyclopropanesulfonimidoyl)phenyl)sulfonyl)spiro[cyclohexane-1,3′-indoline]]
2.01 to 8	CN(C)S(=O)(=O)c1ccc(S(=O)(=O)N2CC3(CCOC3)c3ccccc32)cc1 (stereo not drawn) [Compound I-76, 4-({1,2-dihydrospiro[indole-3,3′-oxolan]-1-yl}sulfonyl)-N,N-dimethylbenzene-1-sulfonamide]
≥ 10	O=S(=O)(c1ccc(OC(F)F)c(F)c1)N1CC2(CCCC2)c2ccccc21 [Compound I-23, 1′-[4-(difluoromethoxy)-3-fluorobenzenesulfonyl]-1′,2′-dihydrospiro[cyclopentane-1,3′-indole]]
≥ 10	COC(=O)C(C)(C)c1ccc(S(=O)(=O)N2CC3(CCCC3)c3ccccc32)cc1 [Compound I-53, methyl 2-[4-({1′,2′-dihydrospiro[cyclopentane-1,3′-indol]-1′-yl}sulfonyl)phenyl]-2-methylpropanoate]
≥ 10	O=S(=O)(c1ccc(C2CC2)s1)N1CC2(CCCC2)c2ccccc21 [Compound I-33, 1′-[(5-cyclopropylthiophen-2-yl)sulfonyl]-1′,2′-dihydrospiro[cyclopentane-1,3′-indole]]

More lines, now with the values behind:

SMILES	EC50 [µM]
O=S(=O)(c1cccc(C2OCCO2)c1)N1CC2(CCCC2)c2ccccc21 [Compound I-27, 1′-[3-(1,3-dioxolan-2-yl)benzenesulfonyl]-1′,2′-dihydrospiro[cyclopentane-1,3′-indole]]	2.01 to 8
O=S(=O)(C1=Cc2ccccc2CC1)N1CC2(CCCC2)c2ccccc21 [Compound I-42, 1′-(3,4-dihydronaphthalene-2-sulfonyl)-1′,2′-dihydrospiro[cyclopentane-1,3′-indole]]	2.01 to 8
Cc1cc2n(n1)C1(CCCCC1)CN2S(=O)(=O)c1ccc(S(=O)(=O)N(C)C)cc1 [Compound I-123, N,N-dimethyl-4-({6′-methyl-1′,2′-dihydrospiro[cyclohexane-1,3′-pyrazolo[1,5-a]imidazol]-1′-yl}sulfonyl)benzene-1-sulfonamide]	2.01 to 8
O=S(=O)(c1cncc(C(F)F)c1)N1CC2(CCCC2)c2ccccc21 [Compound I-20, 1′-{[S-(difluoromethyl)pyridin-3-yl]sulfonyl}-1′,2′-dihydrospiro[cyclopentane-1,3′-indole]]	≥ 10
O=S(=O)(C1=Cc2ccccc2OCC1)N1CC2(CCCC2)c2ccccc21 [Compound I-40, 1′-(2,3-dihydro-1-benzoxepine-4-sulfonyl)-1′,2′-dihydrospiro[cyclopentane-1,3′-indole]]	2.01 to 8
CN(C)S(=O)(=O)c1ccc(S(=O)(=O)N2CC3(CN(Cc4ccccc4)C3)c3ccccc32)cc1 [Compound I-102, 4-({1-benzyl-1′,2′-dihydrospiro[azetidine-3,3′-indol]-1′-yl}sulfonyl)-N,N-dimethylbenzene-1-sulfonamide]	2.01 to 8
CN(C)S(=O)(=O)c1ccc(S(=O)(=O)N2CC3(CCC(O)CC3)c3ccccc32)cc1 (stereo not drawn) [Compound I-72, 4-({4-hydroxy-1′,2′-dihydrospiro[cyclohexane-1,3′-indol]-1′-yl}sulfonyl)-N,N-dimethylbenzene-1-sulfonamide]	2.01 to 8
O=S(=O)([C@H]1C[C@@H]1c1cccc(F)c1)N1CC2(CCCC2)c2ccccc21 [Compound I-24, 1′{[(1S,2R)-2-(3-fluorophenyl)cyclopropyl]sulfonyl}-1′,2′-dihydrospiro[cyclopentane-1,3′-indole]]	≥ 10
CC(C)c1ccc(S(=O)(=O)N2CC3(CCCC3)c3ccccc32)cc1 [Compound I-4, 1′-[4-(propan-2-yl)benzenesulfonyl]-1′,2′-dihydrospiro[cyclopentane-1,3′-indole]]	8.01 to 9.99
Cc1ccc(CS(=O)(=O)N2CC3(CCCC3)c3ccccc32)c(F)c1 [Compound I-44, 1′-[(2-fluoro-4-methylphenyl)methanesulfonyl]-1′,2′-dihydrospiro[cyclopentane-1,3′-indole]]	2.01 to 8
Cc1ccc(S(=O)(=O)N2CC3(CCCC3)c3ccccc32)cc1 [Compound I-13, 1′-(4-methylbenzenesulfonyl)-1′,2′-dihydrospiro[cyclopentane-1,3′-indole]]	≥ 10
CS(=O)(=O)Nc1ccc(S(=O)(=O)N2CC3(CCCC3)c3ccccc32)cc1 [Compound I-63, N-[4-({1′,2′-dihydrospiro[cyclopentane-1,3′-indol]-1′-yl}sulfonyl)phenyl]methanesulfonamide]	≥ 10
CN1Cc2cc(S(=O)(=O)N3CC4(CCCC4)c4ccccc43)ccc2C1=O [Compound I-55, 5-({1′,2′-dihydrospiro[cyclopentane-1,3′-indol]-1′-yl}sulfonyl)-2-methyl-2,3-dihydro-1H-isoindol-1-one]	≥ 10
CC1(C)OCc2ccc(S(=O)(=O)N3CC4(CCCC4)c4ccccc43)cc21 [Compound I-58, 1′-[(3,3-dimethyl-1,3-dihydro-2-benzofuran-5-yl)sulfonyl]-1′,2′-dihydrospiro[cyclopentane-1,3′-indole]]	2.01 to 8
CC(c1ccc(S(=O)(=O)N(C)C)cc1)N1CC2(CCCCC2)c2ccccc21 (stereo not drawn) [Compound I-150, 4-(1-{1′,2′-dihydrospiro[cyclohexane-1,3′-indol]-1′-yl}ethyl)-N,N-dimethylbenzene-1-sulfonamide]	≥ 10
